According to ChEMBL document CHEMBL1141312, “Induction of apoptosis by diterpenes from the soft coral Xenia elongata” (2007):
Activity calls are given as the source filed them. No cut-off for these calls is given here.

Assays:
W2 = assay: (§1) Induction of apoptosis in mouse W2 cells assessed as cell death after 48 hrs by MTT assay; format: functional
[1] = as §1; format: functional
D3 [2] = assay: Induction of apoptosis in mouse apoptosis-resistant D3 cells assessed as cell growth at 12 uM after 72 hrs by MTT assay; format: functional, cell-based
[3] = Induction of apoptosis in apoptosis-resistant mouse D3 cells assessed as cell growth after 48 hrs by MTT assay; format: functional
D3 [4] = assay: Induction of apoptosis in mouse apoptosis-resistant D3 cells assessed as cell growth at 12 uM after 48 hrs by MTT assay; format: functional, cell-based

SMILES | Activity (W2) | Activity [1] | Activity (D3 [2]) | Activity [3] | Activity (D3 [4])
C=C1CC/C=C(\C)CC[C@H](/C(=C\C=C\C(C)(C)O)COC(C)=O)[C@H]1C(OC)OC | Active |  |  |  | 
C=C1CC/C=C(\C)CC[C@@H]2C(C(CC3OC3(C)C)OC(C)=O)=CO[C@H](OC(C)=O)[C@@H]12 (some centres not stated) |  | 50% | Active | 61% | Active
C=C1CC/C=C(\C)CC[C@H](/C(=C/C=C/C(C)(C)O)COC(C)=O)[C@H]1C(=O)OC | Active |  |  |  | 
C=C1CC/C=C(\C)CC[C@H](/C(=C\CC=C(C)C)COC(C)=O)[C@H]1C(=O)OC | Active |  |  |  | 
